Assay results published in patent US4795743A, “2'-deamino-2'-hydroxyistamycin Bo derivatives of low toxicity” (Zaidan Hojin Biseibutsu Kagaku Kenkyu Kai, priority 1986, dated 1989).
In brackets after ≈: the same amount, converted by molar mass. Where two headings read alike, the source gives them in different places.

Key:
[1] = system: Staphylococcus aureus Smith; assay: Antibacterial spectrum, standard serial dilution method; assay type: cell-based; conditions: read-out: Minimum Growth Inhibitory Concentration
[2] = system: Micrococcus flavus FDA 16; assay: as above; assay type: cell-based; conditions: read-out: Minimum Growth Inhibitory Concentration
Bacillus anthracis = assay: microbe, parasite or virus in culture; assay type: cell-based; conditions: 18 h, read-out: Minimum Growth Inhibitory Concentration
[3] = system: Bacillus subtilis PCI 219; assay: Antibacterial spectrum, standard serial dilution method; assay type: cell-based; conditions: read-out: Minimum Growth Inhibitory Concentration
[4] = system: Bacillus subtilis NRRL B-558; assay: as above; assay type: cell-based; conditions: read-out: Minimum Growth Inhibitory Concentration
[5] = system: Bacillus cereus ATCC 1-702; assay: as above; assay type: cell-based; conditions: read-out: Minimum Growth Inhibitory Concentration
[6] = system: Mycobacterium smegmatis ATCC 607; assay: as above; assay type: cell-based; conditions: Mycolicibacterium smegmatis, read-out: Minimum Growth Inhibitory Concentration
Escherichia coli NIHJ = assay: as above; assay type: cell-based; conditions: read-out: Minimum Growth Inhibitory Concentration
Escherichia coli K-12 R5 = assay: as above; assay type: cell-based; conditions: K12R5, 18 h, read-out: Minimum Growth Inhibitory Concentration
[7] = system: Escherichia coli K-12 J5 R11-2; assay: as above; assay type: cell-based; conditions: K12J5R112, 18 h, read-out: Minimum Growth Inhibitory Concentration
[8] = system: Escherichia coli K-12 C600 R135; assay: as above; assay type: cell-based; conditions: K12C600R135, E. coli K-12 C600 R135, Muller-Hinton medium, 37° C., 18 hours, read-out: Minimum Growth Inhibitory Concentration
[9] = system: Klebsiella Pneumoniae PCI 602; assay: as above; assay type: cell-based; conditions: read-out: Minimum Growth Inhibitory Concentration
[10] = system: Klebsiella pneumoniae 22 = 3038; assay: as above; assay type: cell-based; conditions: read-out: Minimum Growth Inhibitory Concentration
Proteus rettgeri GN311 = assay: as above; assay type: cell-based; conditions: Providencia rettgeri, read-out: Minimum Growth Inhibitory Concentration
Serratia marcescens = assay: as above; assay type: cell-based; conditions: read-out: Minimum Growth Inhibitory Concentration
Providencia sp. Pv16 = assay: as above; assay type: cell-based; conditions: read-out: Minimum Growth Inhibitory Concentration
Providencia sp. 2991 = assay: as above; assay type: cell-based; conditions: read-out: Minimum Growth Inhibitory Concentration
[11] = system: Pseudomonas aeruguinosa H11; assay: as above; assay type: cell-based, Pseudomonas aeruginosa; conditions: Muller-Hinton medium, 37° C., 18 hours, read-out: Minimum Growth Inhibitory Concentration
[12] = system: Pseudomonas aeruguinosa TI-13; assay: as above; assay type: cell-based, Pseudomonas aeruginosa; conditions: read-out: Minimum Growth Inhibitory Concentration
[13] = system: Pseudomonas aeruguinosa GN315; assay: as above; assay type: cell-based, Pseudomonas aeruginosa; conditions: read-out: Minimum Growth Inhibitory Concentration
[14] = system: Pseudomonas aeruguinosa 21-75; assay: as above; assay type: cell-based, Pseudomonas aeruginosa; conditions: 2175, Muller-Hinton medium, 37° C., 18 hours, read-out: Minimum Growth Inhibitory Concentration
[15] = system: Pseudomonas aeruguinosa K-Ps 102; assay: as above; assay type: cell-based, Pseudomonas aeruginosa; conditions: read-out: Minimum Growth Inhibitory Concentration
[16] = system: Pseudomonas maltophilia GN907; assay: as above; assay type: cell-based; conditions: Stenotrophomonas maltophilia, Muller-Hinton medium, 37° C., 18 hours, read-out: Minimum Growth Inhibitory Concentration
[17] = system: gram-negative and gram-positive bacteria; assay: Antibacterial activity, overall result in words; assay type: cell-based; conditions: overall statement in words
[18] = system: resistant bacteria, Pseudomonas aeruginosa, resistant strains of gram-negative and gram-positive bacteria; conditions: background, earlier filings; cited from earlier work
[19] = S. aureus Smith, Muller-Hinton medium, 37° C., 18 hours
[20] = FDA16, Micrococcus flavus FDA 16, Muller-Hinton medium, 37° C., 18 hours
[21] = PCI219, Bacillus subtilis PCI 219, Muller-Hinton medium, 37° C., 18 hours
[22] = NRRLB558, Bacillus subtilis NRRL B-558, Muller-Hinton medium, 37° C., 18 hours
[23] = ATCC1, Bacillus cereus ATCC 1-702, Muller-Hinton medium, 37° C., 18 hours
[24] = ATCC607, Mycobacterium smegmatis ATCC 607, Muller-Hinton medium, 37° C., 18 hours
[25] = TI13, Pseudomonas aeruguinosa TI-13, Muller-Hinton medium, 37° C., 18 hours
[26] = Pseudomonas aeruguinosa GN315, Muller-Hinton medium, 37° C., 18 hours
[27] = KPS102, Pseudomonas aeruguinosa K-Ps 102, Muller-Hinton medium, 37° C., 18 hours
[28] = Micrococcus flavus, FDA16, 18 h
[29] = Bacillus subtilis, PCI219, 18 h
[30] = Klebsiella Pneumoniae PCI 602, Muller-Hinton medium, 37° C., 18 hours
[31] = Proteus rettgeri GN311, Muller-Hinton medium, 37° C., 18 hours
[32] = Providencia sp. Pv16, Muller-Hinton medium, 37° C., 18 hours

SMILES	MIC (Bacillus anthracis) [µg/mL]	MIC [3, 21] [µg/mL]	MIC [4, 22] [µg/mL]	MIC [5, 23] [µg/mL]	MIC [6, 24] [µg/mL]	MIC (Escherichia coli NIHJ; 18 h) [µg/mL]	MIC (Escherichia coli K-12 R5) [µg/mL]	MIC [7] [µg/mL]	MIC [8] [µg/mL]	MIC ([9]; Klebsiella pneumoniae, 18 h) [µg/mL]	MIC ([10]; Klebsiella pneumoniae, 18 h) [µg/mL]	MIC (Proteus rettgeri GN311; GN311, 18 h) [µg/mL]	MIC (Serratia marcescens; 18 h) [µg/mL]	MIC (Providencia sp. 2991; Providencia, SP.2991, 18 h) [µg/mL]	MIC [11] [µg/mL]	MIC [12, 25] [µg/mL]	MIC [13, 26] [µg/mL]	MIC [14] [µg/mL]	MIC [15, 27] [µg/mL]	MIC [16] [µg/mL]	other results
CNCC1CCC(O)C(OC2C(N)CC(OC)C(N(C)C(=O)CN)C2O)O1 (stereo not shown) [Compound No. 1, 2'-Deamino-2'-hydroxyistamycin B]	12.5 (≈ 32 µM)	3.13 (≈ 8.02 µM)	3.13 (≈ 8.02 µM)	50 (≈ 128 µM)	25 (≈ 64 µM)	1.56 (≈ 4 µM)	3.13 (≈ 8.02 µM)	1.56 (≈ 4 µM)	3.13 (≈ 8.02 µM)	6.25 (≈ 16 µM)	12.5 (≈ 32 µM)	6.25 (≈ 16 µM)	12.5 (≈ 32 µM)	12.5 (≈ 32 µM)	> 100	100 (≈ 256 µM)	100 (≈ 256 µM)	> 100	> 100	> 100	MIC [1, 19]: 3.13 µg/mL (≈ 8.02 µM); MIC [2, 20]: 25 µg/mL (≈ 64 µM); MIC (Providencia sp. Pv16; Providencia, SP.PV16, 18 h): 6.25 µg/mL (≈ 16 µM)
CNCC1CCC(O)C(OC2C(N)CC(OC)C(N(C)C(=O)CCN)C2O)O1 (stereo not drawn) [Compound No. 3, 4-N-(β-Alanyl)-2'-deamino-2'-hydroxyistamycin Bo]	3.13 (≈ 7.74 µM)	–	–	25 (≈ 61.8 µM)	25 (≈ 61.8 µM)	1.56 (≈ 3.86 µM)	3.13 (≈ 7.74 µM)	3.13 (≈ 7.74 µM)	3.13 (≈ 7.74 µM)	–	–	3.13 (≈ 7.74 µM)	6.25 (≈ 15.5 µM)	–	100 (≈ 247 µM)	100 (≈ 247 µM)	50 (≈ 124 µM)	100 (≈ 247 µM)	50 (≈ 124 µM)	> 100	MIC ([1]; 18 h): 3.13 µg/mL (≈ 7.74 µM); MIC [2, 28]: 6.25 µg/mL (≈ 15.5 µM); MIC [3, 29]: 6.25 µg/mL (≈ 15.5 µM); MIC ([4]; Bacillus subtilis, NRRLB558, 18 h): 3.13 µg/mL (≈ 7.74 µM); MIC [9, 30]: 12.5 µg/mL (≈ 30.9 µM); MIC ([10]; Klebsiella pneumoniae 22 = 3038, Muller-Hinton medium, 37° C., 18 hours): 12.5 µg/mL (≈ 30.9 µM); MIC (Providencia sp. Pv16; Providencia, SP.PV16, 18 h): 3.13 µg/mL (≈ 7.74 µM); MIC (Providencia sp. 2991; Providencia sp. 2991, Muller-Hinton medium, 37° C., 18 hours): 12.5 µg/mL (≈ 30.9 µM)
CNCC1CCC(O)C(OC2C(N)CC(O)C(N(C)C(=O)CCN)C2O)O1 (stereo not drawn) [Compound No. 4, 4-N-(β-Alanyl)-2'-deamino-2'-hydroxy-3-O-demethylistamycin Bo]	1.56 (≈ 4 µM)	–	0.78 (≈ 2 µM)	–	–	1.56 (≈ 4 µM)	1.56 (≈ 4 µM)	0.78 (≈ 2 µM)	3.13 (≈ 8.02 µM)	3.13 (≈ 8.02 µM)	3.13 (≈ 8.02 µM)	–	3.13 (≈ 8.02 µM)	3.13 (≈ 8.02 µM)	12.5 (≈ 32 µM)	12.5 (≈ 32 µM)	12.5 (≈ 32 µM)	12.5 (≈ 32 µM)	25 (≈ 64 µM)	> 100	MIC ([1]; 18 h): 1.56 µg/mL (≈ 4 µM); MIC [2, 28]: 3.13 µg/mL (≈ 8.02 µM); MIC [3, 29]: 3.13 µg/mL (≈ 8.02 µM); MIC ([5]; Bacillus cereus, ATCC1, 18 h): 6.25 µg/mL (≈ 16 µM); MIC ([6]; ATCC607, 18 h): 6.25 µg/mL (≈ 16 µM); MIC (Proteus rettgeri GN311; [31]): 0.78 µg/mL (≈ 2 µM); MIC (Providencia sp. Pv16; Providencia, SP.PV16, 18 h): 1.56 µg/mL (≈ 4 µM); antibacterial activity [17]: very much good antibacterial activity; antibacterial activity ([17]; listed as 4-N-(β-alanyl)-2'-deamino-2'-hydroxy-3-O-demethylistamycin Bo): antibacterial activity as high as that of istamycin B
CNCC1CCC(O)C(OC2C(N)CC(O)C(N(C)C(=O)CN)C2O)O1 (stereo not shown) [Compound No. 2, 2'-Deamino-2'-hydroxy-3-O-demethylistamycin B]	1.56 (≈ 4.14 µM)	3.13 (≈ 8.31 µM)	3.13 (≈ 8.31 µM)	–	–	1.56 (≈ 4.14 µM)	3.13 (≈ 8.31 µM)	1.56 (≈ 4.14 µM)	3.13 (≈ 8.31 µM)	6.25 (≈ 16.6 µM)	6.25 (≈ 16.6 µM)	1.56 (≈ 4.14 µM)	12.5 (≈ 33.2 µM)	6.25 (≈ 16.6 µM)	25 (≈ 66.4 µM)	–	–	25 (≈ 66.4 µM)	–	> 100	MIC ([1]; 18 h): 1.56 µg/mL (≈ 4.14 µM); MIC [2, 28]: 12.5 µg/mL (≈ 33.2 µM); MIC ([5]; Bacillus cereus, ATCC1, 18 h): 6.25 µg/mL (≈ 16.6 µM); MIC ([6]; ATCC607, 18 h): 6.25 µg/mL (≈ 16.6 µM); MIC (Providencia sp. Pv16; [32]): 3.13 µg/mL (≈ 8.31 µM); MIC ([12]; Pseudomonas, TI13, 18 h): 12.5 µg/mL (≈ 33.2 µM); MIC ([13]; Pseudomonas, GN315, 18 h): 12.5 µg/mL (≈ 33.2 µM); MIC ([15]; Pseudomonas, KPS102, 18 h): 12.5 µg/mL (≈ 33.2 µM)
CNCC1CCC(N)C(OC2C(N)CC(OC)C(N(C)C(=O)CN)C2O)O1 (stereo not shown) [Istamycin B, istamycin B]	0.78 (≈ 2 µM)	0.78 (≈ 2 µM)	0.78 (≈ 2 µM)	6.25 (≈ 16 µM)	0.78 (≈ 2 µM)	–	0.78 (≈ 2 µM)	0.78 (≈ 2 µM)	12.5 (≈ 32.1 µM)	–	3.13 (≈ 8.04 µM)	–	–	3.13 (≈ 8.04 µM)	50 (≈ 128 µM)	25 (≈ 64.2 µM)	25 (≈ 64.2 µM)	50 (≈ 128 µM)	25 (≈ 64.2 µM)	> 100	MIC [1, 19]: 0.39 µg/mL (≈ 1 µM); MIC [2, 20]: 25 µg/mL (≈ 64.2 µM); MIC (Escherichia coli NIHJ; E. coli NIHJ, Muller-Hinton medium, 37° C., 18 hours): 0.78 µg/mL (≈ 2 µM); MIC [9, 30]: 1.56 µg/mL (≈ 4.01 µM); MIC (Proteus rettgeri GN311; [31]): 1.56 µg/mL (≈ 4.01 µM); MIC (Serratia marcescens; Muller-Hinton medium, 37° C., 18 hours): 6.25 µg/mL (≈ 16 µM); MIC (Providencia sp. Pv16; [32]): 1.56 µg/mL (≈ 4.01 µM); antibacterial activity [18]: highest antibacterial activity
